Assay results as given in PMC12541891 (MicrobiologyOpen, 2025).
Converted amounts (≈) assume the structure as drawn.

Columns and labels:
[1] = test system: Escherichia coli MG1655 (ATCC 700926); test: MIC and MBC by microbroth dilution; format: cell-based
Protocol: (§1) No substance was added, in one well, for growth control. A bacterial suspension of 1 × 10^8 CFU/mL was inoculated into all wells of the plate and incubated for 24 h at 37°C. […] The dilutions ranged from 4 to 2000 µg/mL for the substances. The inoculum size was about 2.5×10^3 cells/mL. The plates were incubated at 28°C for 24–48 h. The MIC was determined as the lowest substances' concentration where no visible bacterial or fungal growth was observed. […] Each antimicrobial assay was performed in triplicate.

[2] = test system: Extended Spectrum-Beta-Lactamase producing E. coli (ESBL-Ec); test: MIC and MBC by microbroth dilution; format: cell-based; settings: Escherichia coli
Protocol: as §1

[3] = test system: Staphylococcus aureus ATCC 6538; test: MIC and MBC by microbroth dilution; format: cell-based
Protocol: as §1

[4] = test system: methicillin resistant S. aureus (MRSA); test: MIC and MBC by microbroth dilution; format: cell-based; settings: Staphylococcus aureus
Protocol: as §1

C. albicans AIDS 68 = test: MIC and MFC by microbroth dilution; format: cell-based; settings: Candida albicans, AIDS68
Protocol: as §1

C. tropicalis 45,615 = test: MIC and MFC by microbroth dilution; format: cell-based; settings: Candida tropicalis
Protocol: as §1

C. glabrata DSY562 = test: MIC and MFC by microbroth dilution; format: cell-based, Candida glabrata; settings: Nakaseomyces glabratus, DSY562
Protocol: as §1

C. krusei 44956 = test: MIC and MFC by microbroth dilution; format: cell-based, Candida krusei; settings: Pichia kudriavzevii, 44956
Protocol: as §1

MRSA biofilm [5] = test: Biofilm biomass by crystal violet (CV) assay; format: cell-based, Staphylococcus aureus
Protocol: (§2) For all bacterial strains considered in the study, biofilm was performed on a 96‐well plate inoculated with 200 µL of a bacterial suspension 1 × 10^6 CFU/mL and incubated 24 h at 37°C. After incubation for 4 h at 37°C, the medium was aspirated, non‐adherent cells were removed, washed with PBS and added with 200 µL of fresh medium. […] Similarly, to perform fungal biofilm, the different Candida species were grown for 24 h at 28°C on a multi‐wells plate, washed twice with sterile PBS, and then resuspended at 37°C in RPMI 1640 plus 10% FBS at 2.5 × 10^7 cells. After incubation for 3 h at 37°C in six‐well polystyrene plates, the medium was aspirated, non‐adherent cells were removed and washed with PBS.
(§3) To quantify bacterial and Candida biofilm biomass, CV, a dye able to color the biofilm matrix, was used. Firstly, after the removal of supernatant and washing with PBS, biofilm was fixed adding 100 µL of 99% methanol for 15 min. Then, methanol was rinsed off and the plates were air‐dried. Subsequently, 100 µL of a 0.1% of CV solution were added to wells and, after 20 min of contact, the plates were washed under running tap water. To dissolve the bounded CV, 150 µL of 33% of glacial acetic acid were added to wells. The absorbance was measured at 590 nm using an automatic microplate reader, Tecan Sunrise (Tecan Group Ltd., Männedorf, Switzerland).

S. aureus biofilm [6] = test: Biofilm biomass by crystal violet (CV) assay; format: cell-based, Staphylococcus aureus; settings: substance alone at MIC
Protocol: as §2, §3

C. albicans biofilm [7] = test: Biofilm biomass by crystal violet (CV) assay; format: cell-based, Candida albicans
Protocol: as §2, §3

C. glabrata biofilm [8] = test: Biofilm biomass by crystal violet (CV) assay; format: cell-based, Candida glabrata
Protocol: as §2, §3

C. tropicalis biofilm [9] = test: Biofilm biomass by crystal violet (CV) assay; format: cell-based, Candida tropicalis
Protocol: as §2, §3

E. coli biofilm = test: Biofilm metabolic activity by XTT-reduction assay; format: cell-based, Escherichia coli; settings: substance alone at MIC
Protocol: as §2
(§4) The biofilm metabolic activity was evaluated by XTT assay, that highpoints the activity through the reduction of the tetrazolium salt to formazan. After the removal of supernatant and washing with PBS, a solution of XTT‐menadione solution were added to wells. The XTT‐menadione was prepared dissolving XTT powder in prewarmed PBS (37°C) at 0.5 g/L. The solution was sterilized through a 0.22 μm pore size filter. Before each assay, the XTT solution was thawed and supplemented with menadione, a 10 mM stock dissolved in acetone to a final concentration 1 μM. Plates were incubated for 3 h at 37°C in the dark and then the absorbance was measured at 492 nm using the microplate reader, Tecan Sunrise.

ESBL-Ec biofilm = test: Biofilm metabolic activity by XTT-reduction assay; format: cell-based, Escherichia coli; settings: substance alone at MIC
Protocol: as §2, §4

MRSA biofilm [10] = test: Biofilm metabolic activity by XTT-reduction assay; format: cell-based, Staphylococcus aureus; settings: substance alone at MIC
Protocol: as §2, §4

S. aureus biofilm [11] = test: Biofilm metabolic activity by XTT-reduction assay; format: cell-based, Staphylococcus aureus; settings: substance alone at MIC
Protocol: as §2, §4

C. albicans biofilm [12] = test: Biofilm metabolic activity by XTT-reduction assay; format: cell-based, Candida albicans
Protocol: as §2, §4

C. glabrata biofilm [13] = test: Biofilm metabolic activity by XTT-reduction assay; format: cell-based, Candida glabrata
Protocol: as §2, §4

C. krusei biofilm = test: Biofilm metabolic activity by XTT-reduction assay; format: cell-based, Candida krusei
Protocol: as §2, §4

C. tropicalis biofilm [14] = test: Biofilm metabolic activity by XTT-reduction assay; format: cell-based, Candida tropicalis
Protocol: as §2, §4

[15] = preformed biofilm (24 h), substance alone at MIC
[16] = biofilm in formation, sub-MIC concentrations alone or in combination (Table 5), listed as C
[17] = preformed biofilm, sub-MIC concentrations alone or in combination (Table 5), listed as C
[18] = biofilm in formation (3 h), substance alone at MIC

Cc1ccc(C(C)C)cc1O [Carvacrol, 2‐methyl‐5‐isopropyl phenol]
MBC [1]: 125 µg/mL (≈ 832 µM)
MIC ([1]; 24 h): 125 µg/mL (≈ 832 µM)
MBC [2]: 125 µg/mL (≈ 832 µM)
MIC ([2]; 24 h): 125 µg/mL (≈ 832 µM)
MBC ([3]; ATCC6538): 125 µg/mL (≈ 832 µM)
MIC ([3]; ATCC6538, 24 h): 125 µg/mL (≈ 832 µM)
MBC [4]: 125 µg/mL (≈ 832 µM)
MIC ([4]; 24 h): 125 µg/mL (≈ 832 µM)
MFC (C. albicans AIDS 68): 500 µg/mL (≈ 3330 µM)
MIC (C. albicans AIDS 68): 250 µg/mL (≈ 1660 µM)
MFC (C. tropicalis 45,615): 500 µg/mL (≈ 3330 µM)
MIC (C. tropicalis 45,615): 500 µg/mL (≈ 3330 µM)
MFC (C. glabrata DSY562): 500 µg/mL (≈ 3330 µM)
MIC (C. glabrata DSY562): 250 µg/mL (≈ 1660 µM)
MFC (C. krusei 44956): 500 µg/mL (≈ 3330 µM)
MIC (C. krusei 44956): 500 µg/mL (≈ 3330 µM)
Percentage of biomass reduction (MRSA biofilm [5]; biofilm in formation (4 h), substance alone at MIC): 26.7%
Percentage of biomass reduction (MRSA biofilm [5]; biofilm in formation, sub-MIC concentrations alone or in combination (Table 5)): 30%
Percentage of biomass reduction (MRSA biofilm [5]; [15]): 58%
Percentage of biomass reduction (S. aureus biofilm [6]; biofilm in formation (4 h)): 56.2%
Percentage of biomass reduction (S. aureus biofilm [6]; preformed biofilm (24 h)): 71.5%
Percentage of biomass reduction (C. albicans biofilm [7]; [16]): 53.5%
Percentage of biomass reduction (C. albicans biofilm [7]; [15]): 36%
Percentage of biomass reduction (C. albicans biofilm [7]; [17]): 29.6%
Percentage of biomass reduction (C. glabrata biofilm [8]; [16]): 64.9%
Percentage of biomass reduction (C. glabrata biofilm [8]; [15]): 52.9%
Percentage of biomass reduction (C. glabrata biofilm [8]; [17]): 44.3%
Percentage of biomass reduction (C. tropicalis biofilm [9]; [16]): 25.3%
Percentage of biomass reduction (C. tropicalis biofilm [9]; [15]): 57.4%
Percentage of biomass reduction (C. tropicalis biofilm [9]; [17]): 20.8%
Percentage of metabolic activity reduction (E. coli biofilm; biofilm in formation (4 h)): 62%
Percentage of metabolic activity reduction (E. coli biofilm; preformed biofilm (24 h)): 28.5%
Percentage of metabolic activity reduction (ESBL-Ec biofilm; biofilm in formation (4 h)): 57%
Percentage of metabolic activity reduction (ESBL-Ec biofilm; preformed biofilm (24 h)): 22%
Percentage of metabolic activity reduction (MRSA biofilm [10]; biofilm in formation (4 h)): 24.6%
Percentage of metabolic activity reduction (MRSA biofilm [10]; preformed biofilm (24 h)): 45.6%
Percentage of metabolic activity reduction (S. aureus biofilm [11]; biofilm in formation (4 h)): 54.9%
Percentage of metabolic activity reduction (S. aureus biofilm [11]; preformed biofilm (24 h)): 88%
Percentage of metabolic activity reduction (C. albicans biofilm [12]; [18]): 91%
Percentage of metabolic activity reduction (C. albicans biofilm [12]; [16]): 55.1%
Percentage of metabolic activity reduction (C. albicans biofilm [12]; [15]): 93%
Percentage of metabolic activity reduction (C. albicans biofilm [12]; [17]): 44.9%
Percentage of metabolic activity reduction (C. glabrata biofilm [13]; [18]): 92%
Percentage of metabolic activity reduction (C. glabrata biofilm [13]; [16]): 70%
Percentage of metabolic activity reduction (C. glabrata biofilm [13]; [15]): 91.0%
Percentage of metabolic activity reduction (C. glabrata biofilm [13]; [17]): 51.2%
Percentage of metabolic activity reduction (C. krusei biofilm; [18]): 89.4%
Percentage of metabolic activity reduction (C. krusei biofilm; [16]): 30%
Percentage of metabolic activity reduction (C. krusei biofilm; [15]): 89.4%
Percentage of metabolic activity reduction (C. krusei biofilm; [17]): 25%
Percentage of metabolic activity reduction (C. tropicalis biofilm [14]; [18]): 88.7%
Percentage of metabolic activity reduction (C. tropicalis biofilm [14]; [16]): 35.0%
Percentage of metabolic activity reduction (C. tropicalis biofilm [14]; [15]): 72.8%
Percentage of metabolic activity reduction (C. tropicalis biofilm [14]; [17]): 26.1%
